# Test results reported in patent US20100076015A1, “Aminopyridine Derivatives” (VANTIA LIMITED, priority 2008, published 2010).
# Target: T1, Human KLK1 (Homo sapiens, UniProt P06870)
# T1 construct: purchased Callbiochem (Calbiochem)
# Assay: Determination of the IC50 for KLK1 (fluorogenic substrate H-DVal-Leu-Arg-AFC)
# Format: biochemical
# Conditions: 37° C.
# In short: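 IC50 values reflect residual human KLK1 activity, read as initial rate from optical absorbance change at 410 nm. Incubations ran at 37° C with H-DVal-Leu-Arg-AFC as substrate across a compound concentration series.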
# T1 sequence (P06870 25-262): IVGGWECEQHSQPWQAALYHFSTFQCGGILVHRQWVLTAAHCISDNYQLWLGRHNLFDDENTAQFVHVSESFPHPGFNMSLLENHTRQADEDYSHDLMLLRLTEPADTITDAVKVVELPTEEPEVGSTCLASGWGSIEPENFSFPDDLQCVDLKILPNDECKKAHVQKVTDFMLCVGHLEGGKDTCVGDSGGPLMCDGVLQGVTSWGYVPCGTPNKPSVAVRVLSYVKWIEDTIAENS
row,IC50 [nM],SMILES
1,5,"CC(C)N(C)[C@@H](C)C(=O)N[C@@H](C(=O)NCc1ccc(N)nc1)C(O)C1CCCCC1 (stereo partly drawn) [Example 435, (S)—N-{(R)-1-[(6-Amino-pyridin-3-ylmethyl)-carbamoyl]-2-cyclohexyl-2-hydroxy-ethyl}-2-(isopropyl-methyl-amino)-propionamide]"
2,1.2,"CCC(C)[C@@H](NC)C(=O)N[C@@H](Cc1ccc(Cl)cc1)C(=O)NCc1ccc(N)nc1 (stereo partly drawn) [Example 46, (R)-3-Methyl-2-methylamino-pentanoic acid [(S)-1-[(6-amino-pyridin-3-ylmethyl)-carbamoyl]-2-(4-chloro-phenyl)-ethyl]-amide]"
3,1.4,"Cc1nc(N)ccc1CNC(=O)[C@H](Cc1ccc(Cl)c(Cl)c1)NC(=O)[C@H](N)C(C)(C)C [Example 199, (R)-2-Amino-N-[(S)-1-[(6-amino-2-methyl-pyridin-3-ylmethyl)-carbamoyl]-2-(3,4-dichloro-phenyl)-ethyl]-3,3-dimethyl-butyramide]"
4,36.8,"COc1cccc(C[C@H](NC(=O)[C@H]2CCCN2C(C)C)C(=O)NCc2ccc(N)nc2)c1 [Example 124, (R)-1-Isopropyl-pyrrolidine-2-carboxylic acid [(S)-1-[(6-amino-pyridin-3-ylmethyl)-carbamoyl]-2-(3-methoxy-phenyl)-ethyl]-amide]"
5,147,"Nc1ccc(CNC(=O)[C@H](Cc2cccc(C(F)(F)F)c2)NC(=O)c2ccc(C(=O)O)[nH]2)cn1 [Example 275, 5-[(S)-1-[(6-Amino-pyridin-3-ylmethyl)-carbamoyl]-2-(3-trifluoromethyl-phenyl)-ethylcarbamoyl]-1H-pyrrole-2-carboxylic acid]"
6,48.6,"CN1CCC[C@H]1C(=O)N[C@@H](CC1CCCCC1)C(=O)NCc1ccc(N)nc1 [Example 382, (S)-1-Methyl-pyrrolidine-2-carboxylic acid {(S)-1-[(6-amino-pyridin-3-ylmethyl)-carbamoyl]-2-cyclohexyl-ethyl}-amide]"
7,49.4,"C[C@@H](C(=O)N[C@@H](CC1CCCCC1)C(=O)NCc1ccc(N)nc1)N(C)C [Example 391, (S)—N-{(S)-1-[(6-Amino-pyridin-3-ylmethyl)-carbamoyl]-2-cyclohexyl-ethyl}-2-dimethylamino-propionamide]"
8,2.7,"Nc1ccc(CNC(=O)[C@H](Cc2ccc(Cl)c(Cl)c2)NC(=O)[C@H]2C=CCN2)cn1 [Example 65, (R)-2,5-Dihydro-1H-pyrrole-2-carboxylic acid [(S)-1-[(6-amino-pyridin-3-ylmethyl)-carbamoyl]-2-(3,4-dichloro-phenyl)-ethyl]-amide]"
9,6.9,"Cc1cc(C)c(C(=O)N[C@@H](Cc2cc(F)cc(F)c2)C(=O)NCc2ccc(N)nc2)[nH]1 [Example 249, 3,5-Dimethyl-1H-pyrrole-2-carboxylic acid [(S)-1-[(6-amino-pyridin-3-ylmethyl)-carbamoyl]-2-(3,5-difluoro-phenyl)-ethyl]-amide]"
10,7.8,"Cc1cc(C)c(C(=O)N[C@@H](Cc2ccccc2C)C(=O)NCc2ccc(N)nc2)[nH]1 [Example 244, 3,5-Dimethyl-1H-pyrrole-2-carboxylic acid {(S)-1-[(6-amino-pyridin-3-ylmethyl)-carbamoyl]-2-o-tolyl-ethyl}-amide]"
11,2.9,"Nc1ccc(CNC(=O)[C@H](Cc2cccc(Cl)c2)NC(=O)[C@H]2CCCCN2)cn1 [Example 77, (R)-Piperidine-2-carboxylic acid [(S)-1-[(6-amino-pyridin-3-ylmethyl)-carbamoyl]-2-(3-chloro-phenyl)-ethyl]-amide]"
12,9.2,"Nc1ccc(CNC(=O)[C@H](Cc2ccc(Cl)c(Cl)c2)NC(=O)[C@H](N)CC2CCCCC2)cn1 [Example 68, (R)-2-Amino-N-[(S)-1-[(6-amino-pyridin-3-ylmethyl)-carbamoyl]-2-(3,4-dichloro-phenyl)-ethyl]-3-cyclohexyl-propionamide]"
